Test results reported in ChEMBL document CHEMBL5465560, “Selectivity Literature for EUbOPEN Chemogenomic Library” (2024).

Assays:
[1] = biological target: T1, Serine/threonine-protein kinase NLK (Homo sapiens) (UniProt Q9UBE8); assay: Selectivity interaction (Ambit KINOMEscan and KiNATiv profiling in Jurkat cells) EUB0000090b NLK; format: cell-based; settings: at 1 µM
T1 sequence (whole entry): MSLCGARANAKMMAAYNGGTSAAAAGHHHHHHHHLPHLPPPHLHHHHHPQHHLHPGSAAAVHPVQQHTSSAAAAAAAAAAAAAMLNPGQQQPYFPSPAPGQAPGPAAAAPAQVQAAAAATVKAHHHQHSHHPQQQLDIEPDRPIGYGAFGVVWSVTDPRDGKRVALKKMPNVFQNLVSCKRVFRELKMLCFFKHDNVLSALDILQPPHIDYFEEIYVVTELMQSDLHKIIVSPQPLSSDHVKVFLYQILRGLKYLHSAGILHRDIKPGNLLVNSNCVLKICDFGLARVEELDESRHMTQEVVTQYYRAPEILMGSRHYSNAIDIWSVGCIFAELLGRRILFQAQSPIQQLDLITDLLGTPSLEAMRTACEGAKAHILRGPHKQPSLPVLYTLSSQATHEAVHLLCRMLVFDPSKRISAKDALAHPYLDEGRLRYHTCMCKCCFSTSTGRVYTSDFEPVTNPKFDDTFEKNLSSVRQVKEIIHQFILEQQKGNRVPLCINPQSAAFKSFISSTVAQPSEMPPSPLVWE

[2] = biological target: Phosphatidylinositol 4-phosphate 3-kinase C2 domain-containing subunit beta (Homo sapiens) (UniProt O00750); assay: Selectivity interaction (Ambit KINOMEscan and KiNATiv profiling in Jurkat cells) EUB0000090b PIK3C2B; format: cell-based; settings: at 1 µM
[3] = biological target: Vascular endothelial growth factor receptor 1 (Homo sapiens) (UniProt P17948); assay: Selectivity interaction (Kinase panel (DSF assay)) EUB0001559a FLT1
[4] = biological target: T2, Serine/threonine-protein kinase STK11 (Homo sapiens) (UniProt Q15831); assay: Selectivity interaction (KinomeScan (DiscoverX)) EUB0001619a STK11; settings: at 1 µM
T2 sequence (whole entry): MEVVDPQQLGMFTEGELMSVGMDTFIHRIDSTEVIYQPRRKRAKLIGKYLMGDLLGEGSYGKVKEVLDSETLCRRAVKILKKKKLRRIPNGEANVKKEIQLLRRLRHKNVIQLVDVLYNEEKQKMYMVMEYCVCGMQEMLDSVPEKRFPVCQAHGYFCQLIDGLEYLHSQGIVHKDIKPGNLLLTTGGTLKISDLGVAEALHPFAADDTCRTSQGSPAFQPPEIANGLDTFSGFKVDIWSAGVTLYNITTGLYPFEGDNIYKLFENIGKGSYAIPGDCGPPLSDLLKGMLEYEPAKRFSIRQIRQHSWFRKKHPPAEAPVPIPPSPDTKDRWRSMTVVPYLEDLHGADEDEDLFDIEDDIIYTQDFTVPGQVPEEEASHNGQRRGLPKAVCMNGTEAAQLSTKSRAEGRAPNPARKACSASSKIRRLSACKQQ

[5] = biological target: Casein kinase II subunit alpha' (Homo sapiens) (UniProt P19784); assay: Selectivity interaction (KinomeScan (DiscoverX)) EUB0000045b CSNK2A2
[6] = biological target: Dual specificity mitogen-activated protein kinase kinase 1 (Homo sapiens, UniProt Q02750); assay: Selectivity interaction (Upstate Kinase Profiler service (Millipore)) EUB0000056c MAP2K1; settings: at 1 µM
[7] = biological target: T3, Dual specificity mitogen-activated protein kinase kinase 4 (Homo sapiens) (UniProt P45985); settings: at 10 µM
T3 sequence (whole entry): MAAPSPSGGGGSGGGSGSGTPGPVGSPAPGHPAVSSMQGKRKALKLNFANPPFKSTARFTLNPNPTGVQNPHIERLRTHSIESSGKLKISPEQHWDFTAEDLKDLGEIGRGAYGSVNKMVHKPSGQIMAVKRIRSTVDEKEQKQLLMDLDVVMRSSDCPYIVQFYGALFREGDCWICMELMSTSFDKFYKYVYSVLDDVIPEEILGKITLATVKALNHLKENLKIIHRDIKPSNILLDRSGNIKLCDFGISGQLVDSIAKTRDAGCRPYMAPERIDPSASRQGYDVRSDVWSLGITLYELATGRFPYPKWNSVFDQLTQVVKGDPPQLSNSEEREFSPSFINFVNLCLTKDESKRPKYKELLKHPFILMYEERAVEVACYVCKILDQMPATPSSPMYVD

[8] = biological target: Dual specificity mitogen-activated protein kinase kinase 2 (Homo sapiens) (UniProt P36507); assay: Selectivity interaction (ActivX KiNativ screen (kinase selectivity in THP-1 cell lysates)) EUB0000639a MAP2K2; format: subcellular; settings: lysate, at 1 µM
[9] = biological target: Tyrosine-protein kinase Fyn (Homo sapiens) (UniProt P06241); assay: Selectivity interaction (KinomeScan (DiscoverX)) EUB0000229b FYN; settings: at 10 µM
[10] = biological target: Casein kinase I isoform gamma-2 (Homo sapiens) (UniProt P78368); assay: Selectivity interaction (KinomeScan (DiscoverX)) EUB0000666a CSNK1G2; settings: at 10 µM
[11] = biological target: T4, SNF-related serine/threonine-protein kinase (Homo sapiens) (UniProt Q9NRH2); assay: Selectivity interaction (KinomeScan (DiscoverX)) EUB0000092b SNRK; settings: at 10 µM
T4 sequence (whole entry): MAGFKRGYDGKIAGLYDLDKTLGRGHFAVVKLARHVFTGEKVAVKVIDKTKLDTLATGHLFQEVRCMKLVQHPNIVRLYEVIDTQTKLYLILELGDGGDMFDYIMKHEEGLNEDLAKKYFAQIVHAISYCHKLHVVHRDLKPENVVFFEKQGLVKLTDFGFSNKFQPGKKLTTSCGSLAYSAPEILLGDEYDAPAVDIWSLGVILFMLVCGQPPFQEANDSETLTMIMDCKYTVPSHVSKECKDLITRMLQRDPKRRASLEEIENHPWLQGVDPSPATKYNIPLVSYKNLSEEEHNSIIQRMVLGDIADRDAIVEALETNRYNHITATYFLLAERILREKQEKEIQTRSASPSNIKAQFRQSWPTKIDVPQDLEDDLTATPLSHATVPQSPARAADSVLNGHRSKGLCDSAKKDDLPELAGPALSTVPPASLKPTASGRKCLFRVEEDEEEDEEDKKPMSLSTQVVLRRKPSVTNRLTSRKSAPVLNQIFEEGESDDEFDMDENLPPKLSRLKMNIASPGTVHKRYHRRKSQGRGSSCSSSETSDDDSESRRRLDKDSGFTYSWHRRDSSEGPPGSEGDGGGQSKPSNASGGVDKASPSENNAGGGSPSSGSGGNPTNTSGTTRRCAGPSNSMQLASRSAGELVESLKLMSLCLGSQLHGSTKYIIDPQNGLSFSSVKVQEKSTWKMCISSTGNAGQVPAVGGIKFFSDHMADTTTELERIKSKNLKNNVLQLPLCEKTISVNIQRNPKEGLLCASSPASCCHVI

[12] = biological target: Mitogen-activated protein kinase 14 (Homo sapiens, UniProt Q16539); assay: Selectivity interaction (KinomeScan (DiscoverX)) EUB0000695a MAPK14; settings: at 100 nM
Chain of Mitogen-activated protein kinase 14 (Q16539 whole entry): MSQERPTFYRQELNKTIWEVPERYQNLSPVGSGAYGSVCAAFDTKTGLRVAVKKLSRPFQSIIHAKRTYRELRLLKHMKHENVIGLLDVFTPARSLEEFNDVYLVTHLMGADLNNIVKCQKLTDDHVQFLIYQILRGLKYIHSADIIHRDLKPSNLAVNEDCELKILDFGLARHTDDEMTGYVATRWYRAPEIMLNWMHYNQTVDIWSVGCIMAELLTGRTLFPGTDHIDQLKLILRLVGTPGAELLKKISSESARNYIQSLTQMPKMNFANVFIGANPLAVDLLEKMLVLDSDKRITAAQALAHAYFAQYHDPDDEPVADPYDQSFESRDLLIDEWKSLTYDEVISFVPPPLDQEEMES

Chain of Casein kinase II subunit alpha' (Homo sapiens) (P19784 whole entry, looked up): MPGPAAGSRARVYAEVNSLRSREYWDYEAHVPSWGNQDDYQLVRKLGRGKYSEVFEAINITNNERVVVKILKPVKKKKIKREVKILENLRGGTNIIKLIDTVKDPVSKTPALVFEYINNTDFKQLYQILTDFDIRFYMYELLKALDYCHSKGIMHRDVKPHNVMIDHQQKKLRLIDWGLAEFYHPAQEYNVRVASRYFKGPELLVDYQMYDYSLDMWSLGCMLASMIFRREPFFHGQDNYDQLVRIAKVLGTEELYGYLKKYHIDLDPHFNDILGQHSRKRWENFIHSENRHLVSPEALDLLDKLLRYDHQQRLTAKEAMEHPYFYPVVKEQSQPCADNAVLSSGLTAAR
Chain of Phosphatidylinositol 4-phosphate 3-kinase C2 domain-containing subunit beta (Homo sapiens) (O00750 whole entry, the tested form may be a part): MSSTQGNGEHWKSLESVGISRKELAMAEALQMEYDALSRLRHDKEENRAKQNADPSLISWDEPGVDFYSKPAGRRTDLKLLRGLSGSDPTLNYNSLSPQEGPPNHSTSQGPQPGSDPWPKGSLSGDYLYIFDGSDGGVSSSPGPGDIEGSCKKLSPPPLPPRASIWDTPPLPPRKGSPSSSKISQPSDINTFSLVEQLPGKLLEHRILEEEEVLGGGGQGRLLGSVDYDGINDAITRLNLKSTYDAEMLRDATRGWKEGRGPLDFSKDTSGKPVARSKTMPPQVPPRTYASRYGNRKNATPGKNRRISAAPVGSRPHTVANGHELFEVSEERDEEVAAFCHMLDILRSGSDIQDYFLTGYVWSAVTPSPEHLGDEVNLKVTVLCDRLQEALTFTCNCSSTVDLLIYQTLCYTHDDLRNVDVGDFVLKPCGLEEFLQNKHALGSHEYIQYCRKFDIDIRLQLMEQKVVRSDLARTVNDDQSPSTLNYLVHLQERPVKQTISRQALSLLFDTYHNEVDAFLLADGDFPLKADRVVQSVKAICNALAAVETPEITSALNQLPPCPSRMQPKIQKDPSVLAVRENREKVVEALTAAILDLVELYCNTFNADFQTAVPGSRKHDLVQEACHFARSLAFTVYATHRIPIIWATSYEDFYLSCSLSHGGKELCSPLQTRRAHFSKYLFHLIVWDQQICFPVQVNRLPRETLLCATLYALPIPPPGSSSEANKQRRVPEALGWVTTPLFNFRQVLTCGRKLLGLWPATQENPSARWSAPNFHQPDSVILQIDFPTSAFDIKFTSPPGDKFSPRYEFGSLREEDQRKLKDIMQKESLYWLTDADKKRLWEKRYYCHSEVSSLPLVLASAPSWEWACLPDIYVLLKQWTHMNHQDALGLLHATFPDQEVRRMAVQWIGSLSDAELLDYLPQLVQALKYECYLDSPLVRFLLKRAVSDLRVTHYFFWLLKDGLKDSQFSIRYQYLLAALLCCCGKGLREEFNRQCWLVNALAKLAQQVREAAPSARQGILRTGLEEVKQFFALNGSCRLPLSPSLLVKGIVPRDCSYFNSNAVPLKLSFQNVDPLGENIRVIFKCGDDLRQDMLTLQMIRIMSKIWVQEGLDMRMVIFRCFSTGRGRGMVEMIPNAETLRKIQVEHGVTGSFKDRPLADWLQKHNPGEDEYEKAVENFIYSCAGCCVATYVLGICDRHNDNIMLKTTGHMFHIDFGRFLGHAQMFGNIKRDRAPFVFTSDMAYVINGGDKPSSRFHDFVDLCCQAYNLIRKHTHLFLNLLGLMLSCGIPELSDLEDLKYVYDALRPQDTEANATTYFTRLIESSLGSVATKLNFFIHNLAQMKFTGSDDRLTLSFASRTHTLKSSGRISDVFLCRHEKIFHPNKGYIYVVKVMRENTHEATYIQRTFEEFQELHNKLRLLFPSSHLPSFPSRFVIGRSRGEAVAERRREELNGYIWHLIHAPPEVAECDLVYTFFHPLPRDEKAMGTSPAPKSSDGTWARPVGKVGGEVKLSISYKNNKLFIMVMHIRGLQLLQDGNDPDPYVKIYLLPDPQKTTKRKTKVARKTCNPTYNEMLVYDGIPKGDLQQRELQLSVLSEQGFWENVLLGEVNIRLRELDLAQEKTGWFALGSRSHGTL
Chain of Casein kinase I isoform gamma-2 (Homo sapiens) (P78368 whole entry, looked up, canonical isoform): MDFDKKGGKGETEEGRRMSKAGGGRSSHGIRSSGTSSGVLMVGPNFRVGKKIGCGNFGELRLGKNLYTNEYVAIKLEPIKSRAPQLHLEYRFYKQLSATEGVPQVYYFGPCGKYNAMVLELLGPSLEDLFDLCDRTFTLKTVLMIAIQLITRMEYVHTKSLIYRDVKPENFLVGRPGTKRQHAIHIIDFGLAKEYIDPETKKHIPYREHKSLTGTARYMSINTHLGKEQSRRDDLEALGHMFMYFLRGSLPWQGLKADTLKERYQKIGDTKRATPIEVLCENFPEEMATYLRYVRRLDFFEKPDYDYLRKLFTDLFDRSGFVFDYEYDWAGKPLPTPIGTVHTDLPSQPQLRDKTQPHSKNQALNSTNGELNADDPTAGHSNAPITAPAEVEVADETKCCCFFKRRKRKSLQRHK
Chain of Tyrosine-protein kinase Fyn (Homo sapiens) (P06241 2-537 limits assumed): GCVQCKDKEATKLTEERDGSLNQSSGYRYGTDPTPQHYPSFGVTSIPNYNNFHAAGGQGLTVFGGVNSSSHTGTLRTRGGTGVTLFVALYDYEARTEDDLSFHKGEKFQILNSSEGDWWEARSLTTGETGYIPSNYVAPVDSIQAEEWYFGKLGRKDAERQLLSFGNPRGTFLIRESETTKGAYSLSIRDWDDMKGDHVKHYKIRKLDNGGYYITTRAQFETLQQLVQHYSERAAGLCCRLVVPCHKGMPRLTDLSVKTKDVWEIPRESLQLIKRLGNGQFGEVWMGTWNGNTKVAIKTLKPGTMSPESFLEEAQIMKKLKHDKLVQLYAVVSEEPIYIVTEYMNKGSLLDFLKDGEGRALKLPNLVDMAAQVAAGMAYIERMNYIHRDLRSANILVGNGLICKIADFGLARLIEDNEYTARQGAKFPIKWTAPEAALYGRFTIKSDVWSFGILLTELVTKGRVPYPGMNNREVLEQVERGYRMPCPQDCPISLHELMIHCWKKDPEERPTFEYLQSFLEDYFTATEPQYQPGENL
Chain of Dual specificity mitogen-activated protein kinase kinase 2 (Homo sapiens) (P36507 whole entry): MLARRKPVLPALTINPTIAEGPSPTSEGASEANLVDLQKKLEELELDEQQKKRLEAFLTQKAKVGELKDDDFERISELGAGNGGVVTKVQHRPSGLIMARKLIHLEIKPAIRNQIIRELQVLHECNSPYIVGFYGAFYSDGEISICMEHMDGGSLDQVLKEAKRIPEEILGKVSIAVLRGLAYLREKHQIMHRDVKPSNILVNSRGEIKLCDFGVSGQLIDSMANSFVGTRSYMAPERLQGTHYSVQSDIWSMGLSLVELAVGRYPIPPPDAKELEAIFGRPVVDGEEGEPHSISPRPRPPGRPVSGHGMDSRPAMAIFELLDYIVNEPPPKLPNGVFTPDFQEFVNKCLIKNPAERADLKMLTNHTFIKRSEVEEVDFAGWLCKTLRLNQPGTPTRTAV
Chain of Dual specificity mitogen-activated protein kinase kinase 1 (Q02750 whole entry): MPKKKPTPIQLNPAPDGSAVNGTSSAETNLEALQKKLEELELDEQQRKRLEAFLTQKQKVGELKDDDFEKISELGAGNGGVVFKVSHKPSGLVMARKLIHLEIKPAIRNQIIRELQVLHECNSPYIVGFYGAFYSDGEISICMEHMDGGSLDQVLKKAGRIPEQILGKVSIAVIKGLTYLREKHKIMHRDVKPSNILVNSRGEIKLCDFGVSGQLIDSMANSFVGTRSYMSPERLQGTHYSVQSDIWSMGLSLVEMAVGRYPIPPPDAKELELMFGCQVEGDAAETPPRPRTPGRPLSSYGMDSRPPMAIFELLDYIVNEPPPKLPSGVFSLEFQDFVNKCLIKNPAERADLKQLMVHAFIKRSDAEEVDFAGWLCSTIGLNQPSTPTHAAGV

CN(C)C/C=C/C(=O)Nc1ccc(C(=O)N2CCCC(Nc3ncc(Cl)c(-c4c[nH]c5ccccc45)n3)C2)cc1 (stereo not drawn)
% of control [1]: 52% | % of control [2]: 94%

CN(C(=O)c1cnn2cccnc12)c1cc2c(cc1N1CCOCC1)C(=O)N(C[C@@H](F)C(C)(C)O)C2
dTM [3]: -0.1 K

N#Cc1cccc(-c2c[nH]c3ncnc(N4CCOCC4)c23)c1
% of control [4]: 100%

C=CC(=O)Nc1cc(-n2c(=O)ccc3cnc4ccc(-c5ccc(NS(C)(=O)=O)cc5)cc4c32)ccc1C
% of control ([5]; at 1 µM): 100% | % of control ([5]; at 10 µM): 67%

Cc1ccc(-c2ccc3c(ccc4sc5c(c43)NC[C@@H](C)NC5=O)n2)cn1
% of inhibition [6]: -8%

Cc1cc([C@@H](C)Nc2ccccc2C(=O)O)c2nc(N3CCOCC3)cc(=O)n2c1 [AZD-6482]
% of control [7]: 100%

CC[C@@H]1[C@H](F)C(=O)N[C@@H]1COc1nccc2cc(C(N)=O)c(OC)cc12 [ZIMLOVISERTIB]
% of inhibition [8]: -10.2%

COc1cc(N(C)c2ccnc3ccc(C(F)(F)F)cc23)cc(OC)c1OC
% binding [9]: 100%

O=C(NOC[C@H](O)CO)c1ccc(F)c(F)c1Nc1ccc(I)cc1F
% of control [10]: 95%

CCC(=O)N1CCN(c2ccc(-n3c(=O)ccc4cnc5ccc(-c6cnc7ccccc7c6)cc5c43)cc2C(F)(F)F)CC1
% of control [11]: 60%

Cc1cc(F)c(C(=O)Nc2cccc(-c3nncn3C(C)C)n2)cc1-n1cnc(C2CC2)c1
% of control [12]: 100%
